Data published in publication PMC8294059, “Identification and Immune Assessment of T Cell Epitopes in Five Plasmodium falciparum Blood Stage Antigens to Facilitate Vaccine Candidate Selection and Optimization” (Frontiers in Immunology, 2021).
Where a SMILES comes first, the peptide text is derived from it.

How the values were obtained:
Assay in all cases: biochemical
Type in all cases: binding
HLA-DRB1*0101 = target: T1, HLA-DRB1*0101 (Homo sapiens, UniProt P01903+P01911, A100R/D57E/F55L/F60I/F76Y/I96L/L162R/M171V/P40L/Q125E/R42F/V115G/Y59C); details: binding inhibition assay; NB = non-binder (no dose-dependent inhibition); read-out: DRB1*0101 IC50
T1 construct: purchased
Method in brief: (§1)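 HLA-peptide complexes are captured with anti-HLA-DR antibody, and bound reference is quantified by europium-probe time-resolved fluorescence.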

HLA-DRB1*0401 = target: T2, HLA-DRB1*0401 (Homo sapiens, UniProt P01903+P01911, A100K/A169T/F76Y/I96L/K127E/L162R/M171V/N62H/P40V/Q125Y/R42H/S133A/S149N/S66Y/V115G/V209L/W38E); details: binding inhibition assay; NB = non-binder (no dose-dependent inhibition); read-out: DRB1*0401 IC50
T2 construct: purchased
Method in brief: as §1

HLA-DRB1*0701 = HLA-DRB1*0701 (Homo sapiens, UniProt P01903+P01911, A100R/A102G/A103Q/D57E/D86V/E43K/F76Y/K127E/L162R/M171V/P40G/Q125H/Q99D/R33Q/R42Y/R54Q/S133A/S66F/T210M/V115G/Y107V/Y59L/Y89S); details: binding inhibition assay; NB = non-binder (no dose-dependent inhibition); read-out: DRB1*0701 IC50
Method in brief: as §1

HLA-DRB1*0801 = HLA-DRB1*0801 (Homo sapiens, UniProt P01903+P01911, A100R/A103L/A169T/D86S/F76Y/H45Y/I96F/K41T/L162R/M171V/P40S/Q125H/Q178H/Q39Y/Q99D/R218S/R42G/S66Y/V115G/W38E); details: binding inhibition assay; NB = non-binder (no dose-dependent inhibition); read-out: DRB1*0801 IC50
Method in brief: as §1

HLA-DRB1*1101 = HLA-DRB1*1101 (Homo sapiens, UniProt P01903+P01911, A100R/A169T/A87E/I96F/K41T/L162R/M171V/P40S/Q125H/Q178H/Q39Y/Q99D/R42S/S66Y/T262R/V115G/W38E); details: binding inhibition assay; NB = non-binder (no dose-dependent inhibition); read-out: DRB1*1101 IC50
Sequence of HLA-DRB1*1101 (P01903 26-254 limits assumed, other chains not shown): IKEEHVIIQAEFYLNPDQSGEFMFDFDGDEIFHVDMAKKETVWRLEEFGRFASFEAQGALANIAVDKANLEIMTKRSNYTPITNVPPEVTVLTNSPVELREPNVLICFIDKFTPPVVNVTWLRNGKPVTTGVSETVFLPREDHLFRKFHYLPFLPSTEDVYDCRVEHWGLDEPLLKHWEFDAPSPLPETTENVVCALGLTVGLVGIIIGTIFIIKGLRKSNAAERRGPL
Method in brief: as §1

HLA-DRB1*1301 = HLA-DRB1*1301 (Homo sapiens, UniProt P01903+P01911, A100E/A169T/K41T/L162R/M171V/P40S/Q125H/Q178H/Q39Y/Q99D/R42S/S66N/T262R/W38E/Y61H); details: binding inhibition assay; NB = non-binder (no dose-dependent inhibition); read-out: DRB1*1301 IC50
Method in brief: as §1

HLA-DRB1*1501 = target: T3, HLA-DRB1*1501 (Homo sapiens, UniProt P01903+P01911); details: binding inhibition assay; NB = non-binder (no dose-dependent inhibition); read-out: DRB1*1501 IC50
T3 construct: purchased
Method in brief: as §1

Structure (SMILES)	IC50 (HLA-DRB1*0101) [µM]	IC50 (HLA-DRB1*0401) [µM]	IC50 (HLA-DRB1*0701) [µM]	IC50 (HLA-DRB1*0801) [µM]	IC50 (HLA-DRB1*1101) [µM]	IC50 (HLA-DRB1*1301) [µM]	IC50 (HLA-DRB1*1501) [µM]
CC[C@H](C)[C@H](NC(=O)[C@H](CC(N)=O)NC(=O)[C@H](Cc1ccc(O)cc1)NC(=O)[C@H](CC(N)=O)NC(=O)[C@H](CO)NC(=O)[C@H](CC(C)C)NC(=O)[C@H](CCC(=O)O)NC(=O)[C@H](CCCCN)NC(=O)[C@H](Cc1ccccc1)NC(=O)[C@H](Cc1c[nH]cn1)NC(=O)[C@H](Cc1ccc(O)cc1)NC(=O)[C@H](CCC(N)=O)NC(=O)[C@@H](N)CC(C)C)C(=O)N[C@@H](C)C(=O)N[C@@H](CC(N)=O)C(=O)N[C@@H](CO)C(=O)N[C@H](C(=O)N[C@@H](CC(=O)O)C(N)=O)[C@@H](C)CC [RH5_005] (H-LQYHFKELSNYNIANSID-NH2)	0.018	2.86	3.79	19.4	11.3	50.9	0.025
CC[C@H](C)[C@H](NC(=O)[C@H](CS)NC(=O)[C@H](CCCCN)NC(=O)CNC(=O)[C@H](Cc1ccc(O)cc1)NC(=O)[C@@H](NC(=O)[C@H](CO)NC(=O)[C@H](CO)NC(=O)[C@H](CCCCN)NC(=O)[C@H](Cc1c[nH]cn1)NC(=O)[C@H](Cc1ccc(O)cc1)NC(=O)[C@@H](NC(=O)[C@H](CO)NC(=O)[C@H](CC(N)=O)NC(=O)[C@H](Cc1ccc(O)cc1)NC(=O)[C@H](CO)NC(=O)[C@H](CC(C)C)NC(=O)[C@H](Cc1c[nH]cn1)NC(C)=O)[C@@H](C)CC)[C@@H](C)O)C(=O)N[C@@H](C)C(N)=O [RH5_006B] (Ac-HLSYNSIYHKSSTYGKCIA-NH2)	1.35	2.91	19.8	18.9	0.834	29.3	7.8
CC[C@H](C)[C@H](NC(=O)[C@H](Cc1ccc(O)cc1)NC(=O)[C@@H](NC(=O)[C@H](Cc1ccc(O)cc1)NC(=O)[C@H](CO)NC(=O)CNC(=O)[C@H](CCSC)NC(=O)[C@H](CCCCN)NC(=O)[C@H](CCCCN)NC(=O)[C@H](CC(N)=O)NC(=O)[C@H](CC(C)C)NC(=O)[C@H](CC(N)=O)NC(=O)[C@@H](NC(=O)[C@H](CC(C)C)NC(=O)[C@H](CC(C)C)NC(=O)[C@H](CC(C)C)NC(=O)[C@H](CCC(=O)O)NC(=O)[C@@H](N)CO)[C@@H](C)O)[C@@H](C)CC)C(N)=O [RH5_010B] (H-SELLLTNLNKKMGSYIYI-NH2)	0.077	84	41.5	6.46	0.204	9.34	9.97
CC[C@H](C)[C@H](NC(=O)[C@H](CC(N)=O)NC(=O)[C@H](CC(N)=O)NC(=O)[C@H](CC(C)C)NC(=O)[C@H](Cc1c[nH]cn1)NC(=O)[C@H](CCCCN)NC(C)=O)C(=O)N[C@@H](Cc1ccccc1)C(=O)N[C@@H](Cc1c[nH]cn1)C(=O)N[C@@H](Cc1c[nH]cn1)C(=O)N[C@@H](CC(C)C)C(=O)N[C@H](C(=O)N[C@@H](Cc1ccc(O)cc1)C(=O)N[C@H](C(=O)N[C@@H](CC(C)C)C(=O)N[C@@H](CCC(N)=O)C(=O)N[C@@H](CCSC)C(=O)N[C@@H](CCCCN)C(N)=O)C(C)C)[C@@H](C)CC [RH5_012] (Ac-KHLNNIFHHLIYVLQMK-NH2)	0.025	7.23	24.2	91.7	33.9	8.83	7.71
CC[C@H](C)[C@H](NC(=O)[C@H](CCCCN)NC(=O)[C@H](CCC(=O)O)NC(=O)[C@@H](NC(=O)[C@H](CO)NC(=O)[C@H](CC(=O)O)NC(=O)[C@H](CCCNC(=N)N)NC(=O)[C@H](CC(N)=O)NC(=O)[C@H](CC(C)C)NC(=O)[C@@H](NC(=O)[C@@H](NC(=O)[C@H](Cc1ccc(O)cc1)NC(=O)[C@@H](NC(=O)[C@H](Cc1ccc(O)cc1)NC(=O)[C@H](CCCCN)NC(=O)[C@H](CC(N)=O)NC(=O)[C@H](CC(C)C)NC(=O)[C@H](Cc1ccc(O)cc1)NC(=O)[C@H](C)NC(=O)[C@H](Cc1ccc(O)cc1)NC(=O)[C@H](CC(=O)O)NC(C)=O)C(C)C)[C@@H](C)O)[C@@H](C)CC)[C@@H](C)O)C(=O)N[C@@H](CCCCN)C(=O)N[C@H](C(=O)N[C@@H](Cc1ccccc1)C(N)=O)[C@@H](C)O [RIPR_002] (Ac-DYAYLNKYVYTILNRDSTEKIKTF-NH2)	0.152	16.7	6.91	16.1	1.47	50.4	0.201
